From ChEMBL document CHEMBL3526076, “Species-dependent and receptor-selective action of bilobalide on the function of constitutive androstane receptor and pregnane X receptor” (Drug Metab Dispos, 2012)

Columns and labels:
Hepatocyte = assay: Cytotoxicity against rat hepatocytes at 1 to 100 uM after 24 hrs by lactate dehydrogenase assay; format: cell-based
PXR mRNA [1] = assay: Effect on PXR mRNA expression in rat hepatocytes at 1 uM by RT-PCR analysis relative to control; format: ADME, cell-based, Hepatocyte; details: read-out: FC
[2] = target: T1, Nuclear receptor subfamily 1 group I member 2 (Homo sapiens, UniProt O75469); assay: Antagonist activity at human PXR expressed in human HepG2 cells coexpressing CYP3A4 assessed as inhibition of rifampicin-induced receptor activation up to 100 uM after 24 hrs by dual luciferase reporter gene assay; format: ADME, cell-based; details: hepg2, 24 h
T1 sequence (O75469 whole entry): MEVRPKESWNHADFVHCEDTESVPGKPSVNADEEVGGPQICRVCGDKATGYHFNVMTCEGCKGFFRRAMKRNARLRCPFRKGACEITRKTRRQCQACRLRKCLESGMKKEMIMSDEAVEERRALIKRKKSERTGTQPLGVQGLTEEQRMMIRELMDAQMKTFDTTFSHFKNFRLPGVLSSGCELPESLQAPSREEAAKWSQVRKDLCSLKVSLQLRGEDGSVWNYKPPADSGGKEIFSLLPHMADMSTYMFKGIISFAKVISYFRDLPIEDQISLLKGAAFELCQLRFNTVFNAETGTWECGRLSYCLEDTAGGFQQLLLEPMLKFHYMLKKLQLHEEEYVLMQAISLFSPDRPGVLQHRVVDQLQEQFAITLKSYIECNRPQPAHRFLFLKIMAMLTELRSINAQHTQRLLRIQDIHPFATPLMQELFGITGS

CAR mRNA [3] = assay: Effect on CAR mRNA expression in rat hepatocytes at 30 uM by RT-PCR analysis relative to control; format: ADME, cell-based, Hepatocyte; details: read-out: FC
[4] = target: T2, Nuclear receptor subfamily 1 group I member 3 (Rattus norvegicus, UniProt Q9QUS1); assay: Activation of rat CAR expressed in rat hepatocytes coexpressing CYP2B1 at 30 uM after 24 hrs by dual luciferase reporter gene assay relative to phenobarbital; format: ADME, cell-based, Hepatocyte
T2 sequence (Q9QUS1 whole entry): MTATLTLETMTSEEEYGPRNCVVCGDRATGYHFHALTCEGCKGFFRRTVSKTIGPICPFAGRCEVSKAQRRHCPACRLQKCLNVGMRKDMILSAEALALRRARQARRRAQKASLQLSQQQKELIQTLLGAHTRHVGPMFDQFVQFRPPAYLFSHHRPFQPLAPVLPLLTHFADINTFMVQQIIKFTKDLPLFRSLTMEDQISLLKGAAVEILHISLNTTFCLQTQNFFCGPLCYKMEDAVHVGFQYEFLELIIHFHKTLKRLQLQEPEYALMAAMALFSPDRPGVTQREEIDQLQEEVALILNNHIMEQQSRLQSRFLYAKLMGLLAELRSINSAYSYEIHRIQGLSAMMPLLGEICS

[5] = target: T2, Nuclear receptor subfamily 1 group I member 3; assay: Activation of CAR in rat hepatocytes assessed as upregulation of CYP2B1 mRNA expression at 30 uM after 24 hrs by RT-PCR analysis relative to phenobarbital; format: ADME, cell-based, Hepatocyte
[6] = target: T2, Nuclear receptor subfamily 1 group I member 3; assay: Activation of CAR in rat hepatocytes assessed as increase in CYP2B-mediated benzyloxyresorufin O-dealkylation at 1 uM after 24 hrs by spectrofluorometric analysis relative to phenobarbital; format: ADME, cell-based, Hepatocyte
[7] = target: T3, Nuclear receptor subfamily 1 group I member 3 (Homo sapiens, UniProt Q14994); assay: Activation of CAR in human Hu1108 hepatocytes assessed as increase in CYP2B6-mediated bupropion hydroxylation at 10 to 50 uM after 24 hrs by LC-MS analysis; format: ADME, cell-based, Hepatocyte
T3 sequence (Q14994 whole entry): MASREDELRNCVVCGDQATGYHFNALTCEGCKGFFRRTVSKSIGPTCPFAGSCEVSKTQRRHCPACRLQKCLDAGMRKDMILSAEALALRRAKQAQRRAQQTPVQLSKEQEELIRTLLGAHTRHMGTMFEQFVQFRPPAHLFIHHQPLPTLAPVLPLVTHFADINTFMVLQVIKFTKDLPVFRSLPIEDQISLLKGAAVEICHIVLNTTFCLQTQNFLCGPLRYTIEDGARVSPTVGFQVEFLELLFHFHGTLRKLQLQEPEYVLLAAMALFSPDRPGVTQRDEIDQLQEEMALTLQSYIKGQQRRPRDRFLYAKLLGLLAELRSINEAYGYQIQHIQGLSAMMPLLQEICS

[8] = target: T3, Nuclear receptor subfamily 1 group I member 3; assay: Activation of human CAR expressed in human HepG2 cells coexpressing CYP2B6 at 0.1 to 100 uM after 24 hrs by dual luciferase reporter gene assay; format: ADME, cell-based; details: hepg2, 24 h
PXR mRNA [9] = assay: Effect on PXR mRNA expression in human hepatocytes at 25 uM by RT-PCR analysis relative to control; format: ADME, cell-based, Hepatocyte; details: read-out: FC
[10] = target: T1, Nuclear receptor subfamily 1 group I member 2; assay: Activation of PXR in human Hu1043 hepatocytes assessed as effect on CYP3A4 mRNA expression at 10 to 60 uM after 24 hrs by RT-PCR analysis; format: ADME, cell-based, Hepatocyte
[11] = target: T2, Nuclear receptor subfamily 1 group I member 3; assay: Activation of rat CAR expressed in rat hepatocytes coexpressing CYP2B1 at 0.1 to 10 uM after 24 hrs by dual luciferase reporter gene assay; format: ADME, cell-based, Hepatocyte
[12] = target: T4, Nuclear receptor subfamily 1 group I member 2 (Rattus norvegicus, UniProt Q9R1A7); assay: Antagonist activity at rat PXR expressed in human HepG2 cells coexpressing CYP3A4 assessed as inhibition of PCN-induced receptor activation up to 100 uM after 24 hrs by dual luciferase reporter gene assay; format: ADME, cell-based; details: hepg2, 24 h
T4 sequence (Q9R1A7 whole entry): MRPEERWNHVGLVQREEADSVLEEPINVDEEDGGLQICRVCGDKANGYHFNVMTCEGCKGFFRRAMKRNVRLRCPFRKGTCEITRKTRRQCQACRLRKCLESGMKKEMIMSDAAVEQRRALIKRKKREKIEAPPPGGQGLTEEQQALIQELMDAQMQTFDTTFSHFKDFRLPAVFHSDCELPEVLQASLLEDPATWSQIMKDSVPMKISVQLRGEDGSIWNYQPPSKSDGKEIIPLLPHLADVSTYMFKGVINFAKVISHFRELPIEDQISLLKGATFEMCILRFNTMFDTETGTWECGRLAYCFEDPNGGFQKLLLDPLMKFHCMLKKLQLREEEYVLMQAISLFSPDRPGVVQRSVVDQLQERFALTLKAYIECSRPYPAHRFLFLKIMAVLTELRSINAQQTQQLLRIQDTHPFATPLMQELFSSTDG

CAR mRNA [13] = assay: Effect on CAR mRNA expression in rat hepatocytes at 3 uM by RT-PCR analysis relative to control; format: ADME, cell-based, Hepatocyte; details: read-out: FC
[14] = target: T1, Nuclear receptor subfamily 1 group I member 2; assay: Activation of PXR in human Hu1108 hepatocytes assessed as effect on CYP3A4 mRNA expression at 10 to 50 uM after 24 hrs by RT-PCR analysis; format: ADME, cell-based, Hepatocyte
[15] = target: T2, Nuclear receptor subfamily 1 group I member 3; assay: Activation of CAR in rat hepatocytes assessed as increase in CYP2B-mediated benzyloxyresorufin O-dealkylation at 10 uM after 24 hrs by spectrofluorometric analysis relative to phenobarbital; format: ADME, cell-based, Hepatocyte
[16] = target: T4, Nuclear receptor subfamily 1 group I member 2; assay: Activation of PXR in rat hepatocytes assessed as effect on CYP3A-mediated testosterone 6beta-hydroxylation at 1 to 30 uM after 24 hrs by HPLC analysis; format: ADME, cell-based, Hepatocyte
[17] = target: T2, Nuclear receptor subfamily 1 group I member 3; assay: Activation of rat CAR expressed in rat hepatocytes coexpressing CYP2B1 at 100 uM after 24 hrs by dual luciferase reporter gene assay relative to phenobarbital; format: ADME, cell-based, Hepatocyte
[18] = target: T1, Nuclear receptor subfamily 1 group I member 2; assay: Activation of human PXR expressed in rat hepatocytes coexpressing CYP3A4 at 100 uM after 24 hrs by dual luciferase reporter gene assay; format: ADME, cell-based, Hepatocyte

For `CC(C)(C)[C@]1(O)C[C@@H]2OC(=O)C[C@@]23C(=O)O[C@@H]2OC(=O)[C@H](O)[C@]213`, the Activity (Hepatocyte) was “Non-toxic”, the fold induction at 1 µM (PXR mRNA [1]) was 1.1 and the “inhibition (INH)” value [2] was “Not Active”. The fold induction at 30 µM (CAR mRNA [3]) was 1, the Activity [4] was 189% and the Activity [5] was 37%. The Activity [6] was 30%, the Activity [7] was “Not Active” and the Activity [8] was “Not Active”. For the same molecule, the fold induction at 25 µM (PXR mRNA [9]) was 1.2, the Activity [10] was “Not Active” and the Activity [11] was “Not Active”. The “inhibition (INH)” value [12] was “Not Active”, the fold induction at 3 µM (CAR mRNA [13]) was 1.3 and the Activity [14] was “Not Active”. For the same molecule, the Activity [15] was 64%, the Activity [16] was “Not Active” and the Activity [17] was 115%. The Activity [18] was “Not Active”.
